In patent publication US9808003B2, “Herbicidally active 2-(substituted-phenyl)-cyclopentane-1,3-dione compounds and derivatives thereof” (Syngenta Limited, priority 2013, dated 2017):

Legend:
Type in all cases: in vivo
[1] = tested on: grassy monocotyledonous weeds; assay: Test 1B glasshouse assay, post-emergence, comparison of separated enantiomers, weeds overall; conditions: chiral-column-separated enantiomers, A98 vs A99 and A100 vs A101, Biological Example 1B
Description: Biological Example 1B tests the herbicidal activity of“technical” compounds (i.e. compounds not previously formulated before the test), as the herbicides under test.
An “instant formulation”, known as the “IF50”, containing 50 g/liter (i.e. 5% w/v) of the “technical” (i.e. unformulated) active ingredient (i.e. the herbicide under test), is prepared by dissolving the active ingredient in a mixture of organic solvents and emulsifier, details of which are provided in the Table below. […]
The test plants are then grown on under controlled conditions in the glasshouse (at 22/16° C., day/night; 16 hours light; 65% humidity) and are watered twice daily. 14 days after application of the test herbicide, the test is evaluated visually for percentage phytotoxicity to the plant (where 100%=total damage to plant; 0%=no damage to plant). […]
Herbicidal activity (phytotoxicity) is evaluated visually, and an assessed percentage phytotoxicity score is given for each herbicidal application on each plant species (with 100%=total damage to plant; 0%=no damage to plant; the assessment is recorded in increments of 1%). […]

[2] = tested on: Lolium multiflorum (LOLMU); assay: Test 1B glasshouse assay, post-emergence herbicidal activity against grassy weeds; conditions: 14 DAA
Method in brief: (§1)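 Herbicide applied post-emergence at rates such as 60 g/ha (±50 g/ha cloquintocet-mexyl) or 90 and 120 g/ha (with safener), rates varying per compound. Plants kept at 22/16 °C, watered twice daily; percentage phytotoxicity scored visually after 14 days.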

Poa annua (POAAN) = assay: as above; conditions: 14 DAA
Method in brief: as §1

Setaria viridis (SETVI) = assay: as above; conditions: 14 DAA
Method in brief: as §1

[3] = tested on: Alopecurus myosuroides (ALOMY); assay: as above; conditions: 14 DAA
Method in brief: as §1

Avena fatua (AVEFA) = assay: as above; conditions: 14 DAA
Method in brief: as §1

Winter Wheat “Hereward” = assay: Test 1B glasshouse assay, post-emergence herbicidal activity against cereal crops; conditions: 14 DAA
Method in brief: (§2)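 Visual percentage damage (100% = total, 0% = none) read 14 days after application, averaged over two replicates. Plants grown 14 days at 22/16 °C day/night before post-emergence spraying of unformulated compound (IF50/acetone, 0.5% v/v Adigor). Rates usually 60–120 g/ha; cloquintocet-mexyl 50 g/ha co-applied where stated.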

Spring Wheat “Teal” = assay: as above; conditions: 14 DAA
Method in brief: as §2

[4] = tested on: Spring Barley “Harrington”; assay: as above; conditions: 14 DAA
Method in brief: as §2

Winter Barley “Suzuka” = assay: as above; conditions: 14 DAA
Method in brief: as §2

[5] = 60 g/ha herbicide, 0 g/ha cloquintocet-mexyl, test result no. 1 (T1)
[6] = 60 g/ha herbicide, 50 g/ha cloquintocet-mexyl, test result no. 1 (T1)
[7] = 60 g/ha herbicide, 50 g/ha cloquintocet-mexyl, test result no. 2 (T2)
[8] = 90 g/ha herbicide, 50 g/ha cloquintocet-mexyl, test result no. 2 (T2)
[9] = 120 g/ha herbicide, 50 g/ha cloquintocet-mexyl, test result no. 2 (T2)
[10] = 30 g/ha herbicide, 50 g/ha cloquintocet-mexyl
[11] = 45 g/ha herbicide, 50 g/ha cloquintocet-mexyl
[12] = 60 g/ha herbicide, 0 g/ha cloquintocet-mexyl
[13] = 60 g/ha herbicide, 50 g/ha cloquintocet-mexyl

Cc1cc(-n2cc(Cl)cn2)cc(C)c1C1C(=O)C[C@@H](CCNC(=O)c2ccccn2)C1=O (stereo partly drawn) [Compound A98, N-[2-[(1R)-3-[4-(4-chloropyrazol-1-yl)-2,6-dimethyl-phenyl]-2,4-dioxo-cyclopentyl]ethyl]pyridine-2-carboxamide]
herbicidal activity against grassy monocotyledonous weeds compared with the compound of opposite stereochemistry [1]: more potent herbicidal activity | Post-emergence herbicidal activity, percentage phytotoxicity, LOLMU [2, 5]: 95 (T1) % | Post-emergence herbicidal activity, percentage phytotoxicity, LOLMU [2, 6]: 95 (T1); % | Post-emergence herbicidal activity, percentage phytotoxicity, LOLMU [2, 7]: 100 (T2) % | Post-emergence herbicidal activity, percentage phytotoxicity, LOLMU [2, 8]: 100 (T2) % | Post-emergence herbicidal activity, percentage phytotoxicity, LOLMU [2, 9]: 100 (T2) % | Post-emergence herbicidal activity, percentage phytotoxicity, POAAN (Poa annua (POAAN); [5]): 78 (T1) % | Post-emergence herbicidal activity, percentage phytotoxicity, POAAN (Poa annua (POAAN); [6]): 75 (T1); % | Post-emergence herbicidal activity, percentage phytotoxicity, POAAN (Poa annua (POAAN); [7]): 75 (T2) % | Post-emergence herbicidal activity, percentage phytotoxicity, POAAN (Poa annua (POAAN); [8]): 78 (T2) % | Post-emergence herbicidal activity, percentage phytotoxicity, POAAN (Poa annua (POAAN); [9]): 83 (T2) % | Post-emergence herbicidal activity, percentage phytotoxicity, SETVI (Setaria viridis (SETVI); [5]): 94 (T1) % | Post-emergence herbicidal activity, percentage phytotoxicity, SETVI (Setaria viridis (SETVI); [6]): 97 (T1); % | Post-emergence herbicidal activity, percentage phytotoxicity, SETVI (Setaria viridis (SETVI); [7]): 100 (T2) % | Post-emergence herbicidal activity, percentage phytotoxicity, SETVI (Setaria viridis (SETVI); [8]): 100 (T2) % | Post-emergence herbicidal activity, percentage phytotoxicity, SETVI (Setaria viridis (SETVI); [9]): 100 (T2) % | Post-emergence herbicidal activity, percentage phytotoxicity, ALOMY [3, 5]: 80 (T1) % | Post-emergence herbicidal activity, percentage phytotoxicity, ALOMY [3, 6]: 80 (T1); % | Post-emergence herbicidal activity, percentage phytotoxicity, ALOMY [3, 7]: 78 (T2) % | Post-emergence herbicidal activity, percentage phytotoxicity, ALOMY [3, 8]: 88 (T2) % | Post-emergence herbicidal activity, percentage phytotoxicity, ALOMY [3, 9]: 97 (T2) % | Post-emergence herbicidal activity, percentage phytotoxicity, AVEFA (Avena fatua (AVEFA); [5]): 100 (T1) % | Post-emergence herbicidal activity, percentage phytotoxicity, AVEFA (Avena fatua (AVEFA); [6]): 100 (T1); % | Post-emergence herbicidal activity, percentage phytotoxicity, AVEFA (Avena fatua (AVEFA); [7]): 100 (T2) % | Post-emergence herbicidal activity, percentage phytotoxicity, AVEFA (Avena fatua (AVEFA); [8]): 100 (T2) % | Post-emergence herbicidal activity, percentage phytotoxicity, AVEFA (Avena fatua (AVEFA); [9]): 100 (T2) % | Post-emergence herbicidal activity against cereal crops, percentage phytotoxicity, Winter Wheat “Hereward” (Winter Wheat “Hereward”; [5]): 35 (T1) % | Post-emergence herbicidal activity against cereal crops, percentage phytotoxicity, Winter Wheat “Hereward” (Winter Wheat “Hereward”; [6]): 13 (T1); % | Post-emergence herbicidal activity against cereal crops, percentage phytotoxicity, Winter Wheat “Hereward” (Winter Wheat “Hereward”; [7]): 9 (T2) % | Post-emergence herbicidal activity against cereal crops, percentage phytotoxicity, Winter Wheat “Hereward” (Winter Wheat “Hereward”; [8]): 13 (T2) % | Post-emergence herbicidal activity against cereal crops, percentage phytotoxicity, Winter Wheat “Hereward” (Winter Wheat “Hereward”; [9]): 23 (T2) % | Post-emergence herbicidal activity against cereal crops, percentage phytotoxicity, Spring Wheat “Teal” (Spring Wheat “Teal”; [5]): 30 (T1) % | Post-emergence herbicidal activity against cereal crops, percentage phytotoxicity, Spring Wheat “Teal” (Spring Wheat “Teal”; [6]): 10 (T1); % | Post-emergence herbicidal activity against cereal crops, percentage phytotoxicity, Spring Wheat “Teal” (Spring Wheat “Teal”; [7]): 5 (T2) % | Post-emergence herbicidal activity against cereal crops, percentage phytotoxicity, Spring Wheat “Teal” (Spring Wheat “Teal”; [8]): 13 (T2) % | Post-emergence herbicidal activity against cereal crops, percentage phytotoxicity, Spring Wheat “Teal” (Spring Wheat “Teal”; [9]): 20 (T2) % | Post-emergence herbicidal activity against cereal crops, percentage phytotoxicity, Spring Barley “Harrington” [4, 5]: 33 (T1) % | Post-emergence herbicidal activity against cereal crops, percentage phytotoxicity, Spring Barley “Harrington” [4, 6]: 10 (T1); % | Post-emergence herbicidal activity against cereal crops, percentage phytotoxicity, Spring Barley “Harrington” [4, 7]: 4 (T2) % | Post-emergence herbicidal activity against cereal crops, percentage phytotoxicity, Spring Barley “Harrington” [4, 8]: 5 (T2) % | Post-emergence herbicidal activity against cereal crops, percentage phytotoxicity, Spring Barley “Harrington” [4, 9]: 15 (T2) % | Post-emergence herbicidal activity against cereal crops, percentage phytotoxicity, Winter Barley “Suzuka” (Winter Barley “Suzuka”; [5]): 75 (T1) % | Post-emergence herbicidal activity against cereal crops, percentage phytotoxicity, Winter Barley “Suzuka” (Winter Barley “Suzuka”; [6]): 13 (T1); % | Post-emergence herbicidal activity against cereal crops, percentage phytotoxicity, Winter Barley “Suzuka” (Winter Barley “Suzuka”; [7]): 8 (T2) % | Post-emergence herbicidal activity against cereal crops, percentage phytotoxicity, Winter Barley “Suzuka” (Winter Barley “Suzuka”; [8]): 9 (T2) % | Post-emergence herbicidal activity against cereal crops, percentage phytotoxicity, Winter Barley “Suzuka” (Winter Barley “Suzuka”; [9]): 40 (T2) %

CCc1cc(-n2cc(Cl)cn2)cc(C)c1C1C(=O)C[C@@H](CCNC(=O)c2ccccn2)C1=O (some centres unmarked) [Compound A100]
herbicidal activity against grassy monocotyledonous weeds compared with the compound of opposite stereochemistry [1]: more potent herbicidal activity | Post-emergence herbicidal activity, percentage phytotoxicity, LOLMU [2, 10]: 100% | Post-emergence herbicidal activity, percentage phytotoxicity, LOLMU [2, 11]: 100% | Post-emergence herbicidal activity, percentage phytotoxicity, LOLMU [2, 12]: 100% | Post-emergence herbicidal activity, percentage phytotoxicity, LOLMU [2, 13]: 100% | Post-emergence herbicidal activity, percentage phytotoxicity, POAAN (Poa annua (POAAN); [10]): 73% | Post-emergence herbicidal activity, percentage phytotoxicity, POAAN (Poa annua (POAAN); [11]): 78% | Post-emergence herbicidal activity, percentage phytotoxicity, POAAN (Poa annua (POAAN); [12]): 80% | Post-emergence herbicidal activity, percentage phytotoxicity, POAAN (Poa annua (POAAN); [13]): 78% | Post-emergence herbicidal activity, percentage phytotoxicity, SETVI (Setaria viridis (SETVI); [10]): 95% | Post-emergence herbicidal activity, percentage phytotoxicity, SETVI (Setaria viridis (SETVI); [11]): 99% | Post-emergence herbicidal activity, percentage phytotoxicity, SETVI (Setaria viridis (SETVI); [12]): 99% | Post-emergence herbicidal activity, percentage phytotoxicity, SETVI (Setaria viridis (SETVI); [13]): 99% | Post-emergence herbicidal activity, percentage phytotoxicity, ALOMY [3, 10]: 55% | Post-emergence herbicidal activity, percentage phytotoxicity, ALOMY [3, 11]: 75% | Post-emergence herbicidal activity, percentage phytotoxicity, ALOMY [3, 12]: 83% | Post-emergence herbicidal activity, percentage phytotoxicity, ALOMY [3, 13]: 78% | Post-emergence herbicidal activity, percentage phytotoxicity, AVEFA (Avena fatua (AVEFA); [10]): 100% | Post-emergence herbicidal activity, percentage phytotoxicity, AVEFA (Avena fatua (AVEFA); [11]): 100% | Post-emergence herbicidal activity, percentage phytotoxicity, AVEFA (Avena fatua (AVEFA); [12]): 100% | Post-emergence herbicidal activity, percentage phytotoxicity, AVEFA (Avena fatua (AVEFA); [13]): 100% | Post-emergence herbicidal activity against cereal crops, percentage phytotoxicity, Winter Wheat “Hereward” (Winter Wheat “Hereward”; [10]): 15% | Post-emergence herbicidal activity against cereal crops, percentage phytotoxicity, Winter Wheat “Hereward” (Winter Wheat “Hereward”; [11]): 30% | Post-emergence herbicidal activity against cereal crops, percentage phytotoxicity, Winter Wheat “Hereward” (Winter Wheat “Hereward”; [12]): 60% | Post-emergence herbicidal activity against cereal crops, percentage phytotoxicity, Winter Wheat “Hereward” (Winter Wheat “Hereward”; [13]): 40% | Post-emergence herbicidal activity against cereal crops, percentage phytotoxicity, Spring Wheat “Teal” (Spring Wheat “Teal”; [10]): 20% | Post-emergence herbicidal activity against cereal crops, percentage phytotoxicity, Spring Wheat “Teal” (Spring Wheat “Teal”; [11]): 30% | Post-emergence herbicidal activity against cereal crops, percentage phytotoxicity, Spring Wheat “Teal” (Spring Wheat “Teal”; [12]): 65% | Post-emergence herbicidal activity against cereal crops, percentage phytotoxicity, Spring Wheat “Teal” (Spring Wheat “Teal”; [13]): 45% | Post-emergence herbicidal activity against cereal crops, percentage phytotoxicity, Spring Barley “Harrington” [4, 10]: 13% | Post-emergence herbicidal activity against cereal crops, percentage phytotoxicity, Spring Barley “Harrington” [4, 11]: 18% | Post-emergence herbicidal activity against cereal crops, percentage phytotoxicity, Spring Barley “Harrington” [4, 12]: 83% | Post-emergence herbicidal activity against cereal crops, percentage phytotoxicity, Spring Barley “Harrington” [4, 13]: 28% | Post-emergence herbicidal activity against cereal crops, percentage phytotoxicity, Winter Barley “Suzuka” (Winter Barley “Suzuka”; [10]): 10% | Post-emergence herbicidal activity against cereal crops, percentage phytotoxicity, Winter Barley “Suzuka” (Winter Barley “Suzuka”; [11]): 30% | Post-emergence herbicidal activity against cereal crops, percentage phytotoxicity, Winter Barley “Suzuka” (Winter Barley “Suzuka”; [12]): 93% | Post-emergence herbicidal activity against cereal crops, percentage phytotoxicity, Winter Barley “Suzuka” (Winter Barley “Suzuka”; [13]): 53%
